Source: US4650812A, “4-oxo-3,4-dihydro-2H-1-benzopyranyloxy alkanoic acid derivatives” (Hoffmann-La Roche Inc., priority 1985, dated 1987)
Like-named read-outs stand apart in the source and are kept apart here.

Assays:
[1] = tested on: SRS-A induced constriction of the guinea pig ileum; experiment: Guinea Pig Ileum, In Vitro (SRS-A antagonism); format: cell-based; details: Cavia porcellus
Description: (a) Guinea Pig Ileum, In Vitro:
The guinea pig ileum biassay system has been described by Orange Austen, Adv. Immunol. 10: 105-144 (1969). A 1.5 cm segment is removed from animals weighing 300-400 g and suspended in an organ bath containing 10 ml of Tyrodes solution with 10^-6 M atropine sulfate and 10^-6 M pyrilamine maleate. The bath is maintained at 37° C. and aerated with a mixture of 95% oxygen and 5% carbon dioxide. The SRS-A utilized in this screen is obtained by challenging chopped lung fragments from actively sensitized guinea pigs with egg albumin, in vitro. A dose-response curve to SRS-A challenge is established for the ileum. The dose of SRS-A which given 50% of the maximal contraction (EC50) is then used for subsequent challenge. The drug concentration which inhibits, by 50%, the SRS-A induced constriction of the guinea pig ileum is determined.

leukotriene E4 = experiment: Guinea Pig Bronchoconstriction, In Vivo (Aerosol) (SRS-A antagonism); design: species or system guinea pig (Hartley strain); details: leukotriene E4 i.v. challenge; for In vivo-aerosol IC50: 5 min exposure, % (w/v) conc.
Description: (b) Guinea Pig Bronchoconstriction, In Vivo (Aerosol):
Male guinea pigs (Hartley strain) weighing 300 to 500 g are anesthetized with urethane (2 g/kg) intraperitoneally and a polyetylene cannula is inserted into the jugular vein for drug administration. Tracheal pressure is recorded from a cannula inserted in the trachea and connected to a Statham pressure transducer. After surgical preparation of the animals, a period of time is allowed from pulmonary functions to stabilize. The test compound is administered according to the following protocol. Propanolol (0.1 mg/kg) is administered intravenously while the animals breathed spontaneously. Five minutes thereafter, the animals are exposed for a five minute period to a 1% (w/v) aerosol solution of test compound (adjusted to an alkaline pH where necessary for drug solubilization) or to distilled water of the appropriate pH (for control purposes). A Monaghan (Model 750) ultrasonic nebulizer is used to administer all test compounds by inhalation. The nebulizer ultrasonic frequency is adjusted to produce particles in the 1-8μ diameter range (average 3μ). Aqueous solutions are prepared freshly and introduced into the chamber of the nebulizeer. The output of the nebulizer is made available to the animal by directing a bias flow of aerosol through a Y tube connected to the tracheal cannula. At the end of the exposure period, the animals are paralyzed with succinylcholine (1.2 mg/kg, i.v.) and mechanically respirated (Harvard rodent respirator) at 40 breaths/minute and 2.5 cc tidal volume. […]
The change (cm H2 O) between pre and peak ventilatory pressure readings averaged for three control animals and five drug treated animals. The percent inhibition is calculated from the following formula: [formula] When various drug concentrations are tested, the percent inhibition at each concentration is plotted as log concentration (abscissa) versus percent inhibition (ordinate) and the IC50 is determined from linear regression analysis.

LTD4 = experiment: Oral Testing of Leukotriene Antagonists (guinea pig, SRS-A antagonism); format: in vivo, guinea pig (Hartley strain, Charles River); details: 10 mg/kg P.O., two hours prior to challenge with leukotriene
Description: (c) Oral Testing of Leukotriene Antagonists
Male guinea pigs (Hartley strain, Charles River) weighing 400 to 600 g were anesthetized with urethane (2 g/kg) intraperitoneally and a polyethylene cannula was inserted into the jugular vein for intravenous drug administration. Tracheal pressure (cm water) was recorded from a Statham pressure transducer. After surgical preparation of the animals, a period of time was allowed for spontaneous breathing to stabilize. […] Two minutes later, spontaneous breathing was arrested with succinylcholine chloride (1.2 mg/kg, i.v.) and the animals ventilated with a Harvard (Model #680) small animal respirator set at 40 breaths per minute and 4.0 cc stroke volume. The animals were challenged with a maximum constrictory dose of either leukotriene C4 or leukotriene D4 or leukotriene E4 ([…], i.v.) at 5 minutes. Control vehicle or test drug (adjusted to an alkaline pH where necessary for drug solubilization) was administered (10 mg/kg, p.o) two hours prior to challenge with leukotriene. In order to determine the ID50 for a test drug, the dose is varied from 10 mg/kg, p.o. to 100, 50, 30, 20, 5, 3 and 1 mg/kg. p.o.
In order to determine oral duration of action, the time between exposure to test drug and challenge with leukotriene is varied.
In test procedure (c), the compounds listed in Table III were tested by this oral procedure, and the results obtained are also set out in Table III.

[2] = SRS-A challenge at EC50, Table I, read-out: In vitro G.P. ileum IC50

IC50 [1, 2] [nM] | SMILES | also measured
500 | CCCc1c(OCCCCCCC2(C)CC(=O)c3ccc(OCC(=O)O)c(CCC)c3O2)ccc(C(C)=O)c1O (racemic) [rac.-[[2-[6-(4-acetyl-3-hydroxy-2-propylphenoxy)hexyl]-3,4-dihydro-2-methyl-4-oxo-8-propyl-2H-1-benzopyran-7-yl]oxy]acetic acid] | In vivo-aerosol IC50 (leukotriene E4): 0.26%
3000 | CCCc1c(OCCCCC2(C)CC(=O)c3ccc(OCCCC(=O)O)cc3O2)ccc(C(C)=O)c1O (racemic) [rac.-4-[[2-[4-(4-acetyl-3-hydroxy-2-propylphenoxy)butyl]-3,4-dihydro-2-methyl-4-oxo-2H-1-benzopyran-7-yl]oxy]butanoic acid] | –
2000 | CCCc1c(OCCCCC2(C)CC(=O)c3ccc(OCC(=O)O)c(CCC)c3O2)ccc(C(C)=O)c1O (racemic) [rac.-[2-[4-(4-acetyl-3-hydroxy-2-propylphenoxy)butyl]-3,4-dihydro-2-methyl-4-oxo-8-propyl-2H-1-benzopyran-7-yl]oxy]acetic acid] | –
500 | CCCc1c(OCCCCC2CC(=O)c3ccc(OCC(=O)O)c(CCC)c3O2)ccc(C(C)=O)c1O (racemic) [rac.-[[2-[4-(4-acetyl-3-hydroxy-2-propylphenoxy)butyl]-3,4-dihydro-4-oxo-8-propyl-2H-1-benzopyran-7-yl]oxy]acetic acid] | In vivo-aerosol % inhib. at (% conc.) (leukotriene E4; at 0.1 % conc.): 34.1 ± 8%
1000 | CCCc1c(OCCCCC2(C)CC(=O)c3ccc(OCCCC(=O)O)c(CCC)c3O2)ccc(C(C)=O)c1O (racemic) [rac.-4-[[2-[4-(4-acetyl-3-hydroxy-2-propylphenoxy)butyl]-3,4-dihydro-2-methyl-4-oxo-8-propyl-2H-1-benzopyran-7-yl]oxy]butanoic acid] | –
5000 | CCCc1c(OCCCCC2(C)CC(=O)c3ccc(OCC(=O)O)cc3O2)ccc(C(C)=O)c1O (racemic) [rac.-[[2-[4-(4-acetyl-3-hydroxy-2-propylphenoxy)butyl]-3,4-dihydro-2-methyl-4-oxo-2H-1-benzopyran-7-yl]oxy]acetic acid] | –

The remaining lines, values behind:

SMILES | IC50 [1, 2] [nM] | also measured
CCCc1c(OCCCCC2(C)CC(=O)c3ccc(OCC(=O)OC)c(CCC)c3O2)ccc(C(C)=O)c1O (racemic) [rac.-[[2-[4-(4-acetyl-3-hydroxy-2-propylphenoxy)butyl]-3,4-dihydro-2-methyl-4-oxo-8-propyl-2H-1-benzopyran-7-yl]oxy]acetic acid methyl ester] | – | % Inhib. of LTD4 (LTD4): 25 ± 12%
CCCc1c(OCCCCCCC2CC(=O)c3ccc(OCC(=O)O)c(CCC)c3O2)ccc(C(C)=O)c1O (racemic) [rac.-[[2-[6-(4-acetyl-3-hydroxy-2-propylphenoxy)hexyl]-3,4-dihydro-4-oxo-8-propyl-2H-1-benzopyran-7-yl]oxy]acetic acid] | 300 | In vivo-aerosol IC50 (leukotriene E4): 0.32%
CCCc1c(OCC(O)Cc2ccc3c(=O)cc(C(=O)O)oc3c2CCC)ccc(C(C)=O)c1O (centres unmarked) [7-[3-(4-acetyl-3-hydroxy-2-propylphenoxy)-2-hydroxypropyl]-4-oxo-8-propyl-4H-1-benzopyran-2-carboxylic acid, reference compound] | – | IC50 ([1]; SRS-A challenge at EC50, read-out: IC50 of the standard SRS-A antagonist): 35 nM
CCCc1c(OCCCCC2(C)CC(=O)c3ccc(OCCCC(=O)OCC)c(CCC)c3O2)ccc(C(C)=O)c1O (racemic) [rac.-4-[2-[4-(4-acetyl-3-hydroxy-2-propylphenoxy)butyl]-3,4-dihydro-2-methyl-4-oxo-8-propyl-2H-1-benzopyran-7-yl]oxy]butanoic acid ethyl ester] | – | % Inhib. of LTD4 (LTD4): 38 ± 7%
CCCc1c(OCCCCC2(C)CC(=O)c3ccc(OCC(=O)OC)cc3O2)ccc(C(C)=O)c1O (racemic) [rac.-[[2-[4-(4-acetyl-3-hydroxy-2-propylphenoxy)butyl]-3,4-dihydro-2-methyl-4-oxo-2H-1-benzopyran-7-yl]oxy]acetic acid methyl ester] | – | % Inhib. of LTD4 (LTD4): 47 ± 5%
